Results from paper PMC7986984 (Brain, behavior, and immunity, 2020).
Where two headings read alike, the source gives them in different places. Marks after values point to notes of the source that are not given here.

What was measured:
[1] = format: in vivo, mice; conditions: for AUC: over 24 h; for Cmax: mice, bolus by oral gavage, 0.25-24 h, n = 6 +/- SEM
[2] = format: in vivo, mice; conditions: for AUC: over 24 h; for Cmax: n = 6 +/- SEM
[3] = male, mouse, plasma, po, AUC, Chronic BDPP
[4] = male, mouse, plasma, po, AUC, Chronic Synbiotic
[5] = male, mouse, plasma, po, Tmax, Chronic BDPP
[6] = male, mouse, plasma, po, Tmax, Chronic Synbiotic
[7] = male, mouse, brain, po, AUC, Chronic BDPP
[8] = male, mouse, brain, po, AUC, Chronic Synbiotic
[9] = male, mouse, brain, po, Cmax, Chronic BDPP
[10] = male, mouse, brain, po, Cmax, Chronic Synbiotic
[11] = male, mouse, brain, po, Tmax, Chronic BDPP
[12] = male, mouse, brain, po, Tmax, Chronic Synbiotic

Row | SMILES | AUC [1, 3] [µg·h/mL] | AUC [1, 4] [µg·h/mL] | Tmax [1, 5] [min] | Tmax [1, 6] [min] | AUC [2, 7] [µg·h/mL] | AUC [2, 8] [µg·h/mL] | Cmax [2, 9] [ng/mL] | Cmax [2, 10] [ng/mL] | Tmax [2, 11] [min] | Tmax [2, 12] [min] | further results
1 | O=C(O)c1ccc(O)c(O)c1 [3,4-diHBA, 3,4-Dihydroxybenzoic acid] | 0.138 | 0.0334 | 18 | 18 | 0.0881 | 0.291 | 15.2 ± 3.1 | 14.4 ± 3.8 | 18 | 30 | –
2 | O=C(O)Cc1ccc(O)c(O)c1 [3,4-diHPAA, 3,4-Dihydroxyphenylacetic acid] | 0.74 | 0.344 | 30 | 30 | 2.2 | 2.12 | 100 ± 7 | 126 ± 24 | 60 | 120 | –
3 | O=C(O)c1cccc(O)c1 [3-HBA, 3-Hydroxybenzoic acid] | 0.366 | 0.214 | 60 | 60 | 0.0673 | 0.146 | 5.4 ± 0.4 | 8.9 ± 1.8 | 30 | 240 | –
4 | O=C(O)Cc1cccc(O)c1 [3-HPAA, 3-Hydroxyphenylacetic acid] | 0.606 | 1.08 | 60 | 18 | 0.029 | 0.0412 | 2.7 ± 0.3 | 3.2 ± 0.5 | 30 | 30 | –
5 | O=C(O)CCc1cccc(O)c1 [3-HPPA, 3-(3-Hydroxyphenyl)propionic acid] | 0.0047 | 0.06 | 60 | 120 | – | – | – | – | – | – | –
6 | O=C(O)c1ccc(O)cc1 [4-HBA, 4-Hydroxybenzoic acid] | 0.866 | 1.28 | – | 1440 | 1.7 | 6.68 | 108 ± 19.3 | 448 ± 15 | 0 | 480 | –
7 | O=C(O)C=Cc1ccc(O)cc1 [4-HCA, 4-Hydroxycinnamic acid] | 0.455 | 1.67 | 18 | 18 | – | – | – | – | – | – | –
8 | O=C(O)CNC(=O)c1ccc(O)cc1 [4-HHA, 4-Hydroxyhippuric acid] | 0.0017 | 0.0059 | 18 | 120 | – | – | – | – | – | – | –
9 | COc1c(O)cc(C(=O)O)cc1O [4-MeGA, 4-O-Methylgallic acid] | 0.336 | 0.163 | 30 | 30 | 0.0033 | 0.0068 | 2.2 ± 0.4 | 5 ± 1 | 30 | 18 | –
10 | Oc1cc(O)c2c(c1)OC(c1ccc(O)c(O)c1)C(O)C2 (stereo not shown) [C, Catechin] | – | – | – | – | – | – | – | – | – | – | Tmax ([1]; Plasma, Chronic BDPP): 30 min; Cmax ([1]; Plasma, Chronic BDPP): 55.5 ± 7.8 ng/mL; AUC ([1]; Plasma, Chronic BDPP): 80.6** ng/mL*h; Tmax ([1]; Plasma, Chronic Synbiotic): 60 min; Cmax ([1]; Plasma, Chronic Synbiotic): 0.0098 ± 0.0007 ng/mL; AUC ([1]; Plasma, Chronic Synbiotic): 0.0252 µg·h/mL
11 | COc1cc(CCC(=O)O)ccc1O [DHFA, Dihyroferulic acid] | – | – | – | – | – | – | – | – | – | – | Tmax ([1]; Plasma, Chronic BDPP): 18 min; Cmax ([1]; Plasma, Chronic BDPP): 2.5 ± 0.7 ng/mL; AUC ([1]; Plasma, Chronic BDPP): 0.0307 µg·h/mL; Tmax ([1]; Plasma, Chronic Synbiotic): 18 min; Cmax ([1]; Plasma, Chronic Synbiotic): 0.0077 ± 0.0011 ng/mL; AUC ([1]; Plasma, Chronic Synbiotic): 0.0302 µg·h/mL
12 | Oc1ccc(CCc2cc(O)cc(O)c2)cc1 [DHRSV, Dihydroresveratrol] | 1.05 | 7.8 | 60 | 480 | – | – | – | – | – | – | –
13 | O=C1CCC(Cc2ccc(O)c(O)c2)O1 (stereo not shown) [DHVL, 5-(3′,4′-Dihydroxyphenyl)-γ-valerolactone] | 0.123 | 0.224 | 30 | 60 | – | – | – | – | – | – | –
14 | Oc1cc(O)c2c(c1)O[C@H](c1ccc(O)c(O)c1)[C@H](O)C2 [EC, Epicatechin] | 0.189 | 0.413 | 18 | 18 | – | – | – | – | – | – | –
15 | COc1cc(/C=C/C(=O)O)ccc1O [FA, Ferulic acid] | – | – | – | – | – | – | – | – | – | – | Tmax ([1]; Plasma, Chronic BDPP): 30 min; Cmax ([1]; Plasma, Chronic BDPP): 28.9 ± 9.7 ng/mL; AUC ([1]; Plasma, Chronic BDPP): 320.9** ng/mL*h; Tmax ([1]; Plasma, Chronic Synbiotic): 30 min; Cmax ([1]; Plasma, Chronic Synbiotic): 0.0226 ± 0.0062 ng/mL; AUC ([1]; Plasma, Chronic Synbiotic): 0.1388 µg·h/mL; Tmax ([2]; Brain, Chronic BDPP): 30 min; Cmax ([2]; Brain, Chronic BDPP): 1.5 ± 0.3 ng/mL; AUC ([2]; Brain, Chronic BDPP): 0.0188 µg·h/mL; Tmax ([2]; Brain, Chronic Synbiotic): 120 min; Cmax ([2]; Brain, Chronic Synbiotic): 0.0023 ± 0.0006 ng/mL; AUC ([2]; Brain, Chronic Synbiotic): 0.02 µg·h/mL
16 | O=C(O)c1cc(O)c(O)c(O)c1 [GA, Gallic acid] | 1.27 | 2.39 | 18 | – | 7.56 | 4.76 | 1340 ± 611 | 336 ± 112 | 18 | 120 | –
17 | O=C(O)CNC(=O)c1ccccc1 [HA, Hippuric acid] | 0.889 | 1.32 | 60 | 240 | 0.518 | 1.81 | 22.4 ± 11.6 | 111 ± 7.2 | 60 | 480 | –
18 | COc1cc(CC(=O)O)ccc1O [HVA, Homovanillic acid] | 0.205 | 1.47 | 60 | 30 | 5.92 | 6.22 | 296 ± 10 | 301 ± 14 | 60 | 60 | –
19 | O=c1c(O)c(-c2cc(O)c(O)c(O)c2)oc2cc(O)cc(O)c12 [MYR, Myricetin] | 0.0853 | 0.305 | 30 | 18 | 0.0978 | 0.578 | 86.5 ± 38 | 118 ± 18 | 18 | 60 | –
20 | O=C(O)Cc1ccccc1 [PA, Phenylacetic acid] | 8630 | 8800 | 30 | 240 | 6970 | 14500 | 447000 ± 37200 | 760000 ± 140000 | 30 | 480 | –
21 | Oc1cc(O)c2c(c1)O[C@H](c1ccc(O)c(O)c1)[C@H](O)[C@H]2c1c(O)cc(O)c2c1O[C@H](c1ccc(O)c(O)c1)[C@H](O)C2 [PAC-B2, Proanthocyanidin dimer B2] | – | – | – | – | – | – | – | – | – | – | Tmax ([1]; Plasma, Chronic BDPP): 30 min; Cmax ([1]; Plasma, Chronic BDPP): 2.0 ± 0.7 ng/mL; AUC ([1]; Plasma, Chronic BDPP): 0.0015 µg·h/mL; Tmax ([1]; Plasma, Chronic Synbiotic): 30 min; Cmax ([1]; Plasma, Chronic Synbiotic): 0.0027 ± 0.0008 ng/mL; AUC ([1]; Plasma, Chronic Synbiotic): 3.5* ng/mL*h
22 | O=c1c(O)c(-c2ccc(O)c(O)c2)oc2cc(O)cc(O)c12 [QUER, Quercetin] | 0.0461 | 0.583 | 18 | 18 | 0.142 | 0.544 | 89.5 ± 48.3 | 98.6 ± 24.7 | 18 | 120 | –
23 | Oc1ccc(/C=C/c2cc(O)cc(O)c2)cc1 [RSV, t-Resveratrol (−)] | – | – | – | – | – | – | – | – | – | – | Tmax ([1]; Plasma, Chronic BDPP): 30 min; Cmax ([1]; Plasma, Chronic BDPP): 11628.0 ± 1788.0 ng/mL; AUC ([1]; Plasma, Chronic BDPP): 51313.0* ng/mL*h; Tmax ([1]; Plasma, Chronic Synbiotic): 30 min; Cmax ([1]; Plasma, Chronic Synbiotic): 15.785 ± 4.246 ng/mL; AUC ([1]; Plasma, Chronic Synbiotic): 33.1507 µg·h/mL; Tmax ([2]; Brain, Chronic BDPP): 18 min; Cmax ([2]; Brain, Chronic BDPP): 9.5 ± 2.5 ng/mL; AUC ([2]; Brain, Chronic BDPP): 122.3** ng/mL*h; Tmax ([2]; Brain, Chronic Synbiotic): 120 min; Cmax ([2]; Brain, Chronic Synbiotic): 0.0038 ± 0.0002 ng/mL; AUC ([2]; Brain, Chronic Synbiotic): 0.0331 µg·h/mL
